Assay results as given in patent US20130261024A1, “System for Identifying Connections Between Perturbagens and Genes Associated with a Skin Hyperpigmentation Condition” (THE PROCTER & GAMBLE COMPANY, priority 2012, published 2013).

Assays:
[1] = test system: hyperpigmented spots; assay: 9-week randomized, double-blind, vehicle-controlled, split-face tone benefit clinical study; type: in vivo, Chinese females; conditions: 0.05% in SC-99 vehicle
Excerpt: This Example provides evidence of the advantages of using composite signatures and illustrates clinical affirmation of the C-map model for predicting efficacy of skin-lightening agents. This Example supports embodiments related to composite signatures (as described at the end of Example 3). An illustrative “Skin Tone” Signature developed from a genomics study using a composite skin-lightening benchmark agent signature is derived from Niacinamide, Hexamidine, Sepiwhite, and NAG. The signature is used to query C-map and generate a list of potential skin-lightening agents. A top hit, Chlorhexidine Diactate (CD) is entered into clinical testing for confirmation of efficacy. The control for clinical efficacy is a 5% Niacinamide+1% Sepiwhite formulation in the control vehicle.
Primary endpoints are changes in color spot area fraction (image analysis) and melanin spot area fraction (NC2) from baseline. Secondary endpoints are changes from baseline in L*a*b (color image analysis), mean melanin gray scale (NC2), and melanin evenness (NC2). Texture area fraction and pore area fraction are also evaluated to explore impact on other aspects relating to overall skin tone. […] Statistically significant superiority to the high efficacy benchmark skin active agent to vehicle performance is the clinical success criteria.
Study Design: The experimental protocol included a 9-week (1-week preconditioning & 8-week treatment), randomized, double-blind, round robin, vehicle-controlled, split-face tone benefit study. The subject population included 330 Chinese females, 25-55 years old with hyperpigmented spots. 318 subjects completed the entire study. […] Olay Complete SPF 15 UV Moisturizing Lotion is concomitantly used during pre-conditioning and treatment. 0.5 g each test product per half-face (forehead to jaw line; ˜4 mg/cm^2) is dosed 2× a day (morning/evening). Color SAF and treatment area, Melanin SAF, gray scale, evenness by NC2, and additional measurement of Fine Lines and Wrinkle and Texture are by REAL 3.01A. Data collection points include baseline, and ends of weeks 4, 6 and 8. The tested hypothesis is that there is no difference in clinical endpoint versus the benchmark composition treatment. Study site is Kuntai Clinical Center, Beijing, China and study time frame is February 2010 (pre-conditioning) to April 2010.

[2] = test system: tert-Keratinocyte (tKC) cells; assay: C-map query with the composite "skin tone" benchmark signature (Niacinamide, Sepiwhite, NAG, Hexamidine); type: cell-based, human; conditions: composite signature of Example 3
Experimental: (§1) Individual experiments (referred to as batches) generally comprise 30 to 96 samples analyzed using Affymetrix GeneChip® technology platforms, containing 6 replicates of the vehicle control (e.g., DSMO), 2 replicate samples of a positive control that gives a strong reproducible effect in the cell type used, and samples of the test material/perturbagen. Replication of the test material is done in separate batches due to batch effects. In vitro testing was performed in 6-well plates to provide sufficient RNA for GeneChip® analysis (2-4 μg total RNA yield/well).
Human telomerized keratinocytes (tKC) were obtained from the University of Texas, Southwestern Medical Center, Dallas, Tex. tKC cells were grown in EpiLife® media with 1× Human Keratinocyte Growth Supplement (Invitrogen, Carlsbad, Calif.) on collagen I coated cell culture flasks and plates (Becton Dickinson, Franklin Lakes, N.J.). Keratinocytes were seeded into 6-well plates at 20,000 cells/cm^2 24 hours before chemical exposure. Human skin fibroblasts (BJ cell line from ATCC, Manassas, Va.) were grown in Eagle's Minimal Essential Medium (ATCC) supplemented with 10% fetal bovine serum (HyClone, Logan, Utah) in normal cell culture flasks and plates (Corning, Lowell, Mass.). BJ fibroblasts were seeded into 6-well plates at 12,000 cells/cm^2 24 hours before chemical exposure. […]

[3] = test system: teleomerized human keratinocytes (tKC); assay: C-map query with the Retinoic Acid/Keratinocyte 200 benchmark signature; type: cell-based; conditions: Retinoic Acid Keratinocyte RA-200 signature
Experimental: as §1
Human telomerized keratinocytes (tKC) were obtained from the University of Texas, Southwestern Medical Center, Dallas, Tex. tKC cells were grown in EpiLife® media with 1× Human Keratinocyte Growth Supplement (Invitrogen, Carlsbad, Calif.) on collagen I coated cell culture flasks and plates (Becton Dickinson, Franklin Lakes, N.J.). Keratinocytes were seeded into 6-well plates at 20,000 cells/cm^2 24 hours before chemical exposure. […]
(a) Tert-keratinocytes (tKC) RA Signatures. […] Cells were treated with 1 uM tRA for 6 hr, tested in triplicate, with triplicate DMSO controls, and analyzed on HG-U133A GeneChips. […]

SMILES	Pore area fraction ([1]; compared to vehicle, week 8)	Texture area fraction ([1]; compared to vehicle, week 8)	spot area fraction color test ([1]; compared to vehicle, week 8)	spot area fraction NC2 test ([1]; compared to vehicle, weeks 6 and 8)	Basal skin tone ([1]; versus vehicle, week 8)	NC2 Melanin evenness test ([1]; versus vehicle, weeks 6 and 8)	connectivity to tone composite benchmark signature query [2]	average C-map score [3]
CC(=O)O.CC(=O)O.NC(=N\CCCCCC/N=C(N)/N=C(\N)Nc1ccc(Cl)cc1)/N=C(\N)Nc1ccc(Cl)cc1 [CD, Chlorhexidine Diacetate]	superior efficacy	superior efficacy	significantly fewer spots	significantly reduced fraction	superiority	superiority to the vehicle	top connectivity hit	
CC1=C(/C=C/C(C)=C/C=C/C(C)=C/C(=O)O)C(C)(C)CCC1 [Retinoic acid, all-trans-retinoic acid]								highest score of the materials tested
